What was measured:
Assay type in all cases: cell-based
[1] = target: T1, human calcitonin receptor (CTR) and RAMP3 (AMY3) in COS-7 cells (Homo sapiens, UniProt O60896+P30988); test: Amylin Receptor cAMP Assay I; conditions: values marked *: Amylin Receptor cAMP Assay I; COS-7/AMY3 cells; read-out: Amylin Receptor cAMP Stimulation Activity: EC50
In short: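 COS-7 cells stably co-expressing human CTR and RAMP3 (AMY3) were stimulated with serially diluted compounds (4-fold) in DPBS with 0.5 mM IBMX and 0.1% BSA for 30 min at 37 °C, 1000 cells/well. cAMP accumulation was measured by HTRF (cAMP-d2/anti-cAMP cryptate, 1 h RT) read at 665/615 nm.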

[2] = target: T2, human calcitonin receptor (CTR) in COS-7 cells (Homo sapiens, UniProt P30988); test: Calcitonin Receptor (CTR) cAMP Assay; conditions: COS7-human CTR Clone #2 cells; read-out: Calcitonin Receptor cAMP Stimulation Activity: EC50
T2 construct: expressed in transfected cells; host or cells: COS-7 (COS7-human CTR Clone #2)
T2 sequence (P30988 25-474): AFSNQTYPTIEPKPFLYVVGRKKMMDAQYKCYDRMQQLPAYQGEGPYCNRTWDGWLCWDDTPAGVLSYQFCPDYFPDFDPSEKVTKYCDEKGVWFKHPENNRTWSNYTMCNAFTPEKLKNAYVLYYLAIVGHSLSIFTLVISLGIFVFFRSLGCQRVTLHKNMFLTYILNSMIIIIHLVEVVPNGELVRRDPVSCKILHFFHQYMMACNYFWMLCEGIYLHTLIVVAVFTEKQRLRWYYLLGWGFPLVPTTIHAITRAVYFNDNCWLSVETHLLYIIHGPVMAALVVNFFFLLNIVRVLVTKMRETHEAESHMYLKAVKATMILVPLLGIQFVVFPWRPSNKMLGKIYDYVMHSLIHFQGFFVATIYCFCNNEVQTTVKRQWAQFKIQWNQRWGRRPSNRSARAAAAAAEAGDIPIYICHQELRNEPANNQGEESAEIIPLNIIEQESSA
Text: Calcitonin Receptor (CTR) cAMP Assay
The calcitonin receptor (CTR) belongs to the subfamily of GPCRs known as the secretin or ‘B’ family of GPCRs. Like other class B1 GPCRs, the CT receptor family is canonically coupled to Gs-mediated cAMP production, and measurement of cAMP accumulation has been the primary assay used to determine peptide selectivity and potency.
(§1) To optimize functional activity directed toward Gas coupling, COS-7 cells were stably transfected with human calcitonin receptor (CTR) to create COS7-human CTR Clone #2 stable cell line. 100× concentration of compound working solutions were prepared with 4-fold serial dilution in 384-well Echo LDV plate (Labcyte, Cat #LP-0200-BC). 200 nL/well 100× concentration of compound working solutions were moved to 384-well white microplate (Perkin Elmer, Cat #6007680) using Labcyte ECHO550. 1×10^5 cells/mL COS7-human CTR Clone #2 cell suspensions prepared with assay buffer [HBSS containing 20 mM HEPES (Gibco, Cat #15630-080), 0.5 mM IBMX (Sigma, Cat #15879) and 0.1% Casein (Sigma, Cat #C4765)], 20 μL cell suspensions were added to each well of previous generated assay plate which already contains 200 nL compound at 100× concentration using ThermoFisher Multidrop Combi (2000 cells/well). Seal the plate and incubate at 37° C. with 5% CO2 for 30 min.
(§2) After incubation, the cAMP assay signal was generated using cAMP dynamic 2 kit (Revvity, Cat #62AM4PEC). 10 μL cAMP-d2 working solution was added to each well, followed by 10 L Anti-cAMP antibody-cryptate working solution which was added to each well using CERTUS FLEX LIQUID DISPENSER. The samples were then incubated at room temperature for 1 hour protected from light. the fluorescence was read at 665 and 615 nm with Reader PerkinElmer EnVision 2105.

[3] = target: T1, human calcitonin receptor (CTR) and RAMP3 (AMY3) in COS-7 cells; test: Amylin Receptor cAMP Assay II; conditions: value marked **: Amylin Receptor cAMP Assay II; COS-7/AMY3 cells; read-out: Amylin Receptor cAMP Stimulation Activity: EC50
Text: Amylin Receptor cAMP Assay II
AMYRs are heterodimers of the class B calcitonin (CT) G-protein-coupled receptor (CTR) and receptor activity-modifying proteins (RAMPs). All three RAMPs can interact with the CTR and form AMY1, AMY2, AMY3 with RAMP1, RAMP2 and RAMP3, respectively. Like other class B1 GPCRs, the CT receptor family is canonically coupled to Gs-mediated cAMP production, and measurement of cAMP accumulation has been the primary assay used to determine peptide selectivity and potency.
To optimize functional activity directed toward Gas coupling, COS-7 cells were stably transfected with human calcitonin receptor (CTR) and RAMP3, simultaneously. 100× concentration of compound working solutions were prepared with 4-fold serial dilution in 384-well Echo LDV plate (Labcyte, Cat #LP-0200-BC). 200 nL/well 100× concentration of compound working solutions were moved to 384-well white microplate (Perkin Elmer, Cat #6007680) using Labcyte ECHO550. […]
After incubation, the cAMP assay signal was generated using cAMP dynamic 2 kit (Revvity, Cat #62AM4PEC). […] The samples were then incubated at room temperature for 1 hour protected from light. the fluorescence was read at 665 and 615 nm with Reader PerkinElmer EnVision 2105.

Amylin Receptor = Amylin Receptor (Homo sapiens, UniProt O60896+P30988); test: Amylin Receptor cAMP stimulation, assay version (I or II) not marked; conditions: values without footnote mark; assay I or II not stated
Description: To optimize functional activity directed toward Gas coupling, COS-7 cells were stably transfected with human calcitonin receptor (CTR) and RAMP3, simultaneously. 100× concentration of compound working solutions were prepared (Agilent Technologies Bravo) with 4-fold serial dilution in 384-well Echo LDV plate (Labcyte, Cat #LP-0200). 100 nL/well 100× concentration of compound working solutions were moved to 384-well white low volume plate (Greiner, Cat #784075) using Labcyte ECHO550. 1×10^5 cells/mL COS-7/CTR or COS-7/AMY3 (HD Biosciences) cell suspensions prepared with assay buffer [DPBS containing 0.5 mM IBMX (Sigma, Cat #15879) and 0.1% BSA (GENVIEW, Cat #FA016-100 g)], 10 μL cell suspensions were added to each well of previous generated assay plate which already contains 100 nL compound at 100× concentration using ThermoFisher Multidrop Combi (1000 cells/well). Seal the plate and incubate at 37° C. with 5% CO2 for 30 min.
as §2, with “Hi-range Kit (Cisbio). 5” for “dynamic 2 kit (Revvity, Cat #62AM4PEC). 10”, “5 μL” for “10 L”, “ThermoFisher Multidrop Combi.” for “CERTUS FLEX LIQUID DISPENSER.”, “EnVision.” for “EnVision 2105.”
as §1, with “and RAMP3, simultaneously.” for “to create COS7-human CTR Clone #2 stable cell line.”, “COS-7/AMY3” for “COS7-human CTR Clone #2”
as §2, with “10 μL” for “10 L”

Sequence of Amylin Receptor (O60896 24-148, one chain of several): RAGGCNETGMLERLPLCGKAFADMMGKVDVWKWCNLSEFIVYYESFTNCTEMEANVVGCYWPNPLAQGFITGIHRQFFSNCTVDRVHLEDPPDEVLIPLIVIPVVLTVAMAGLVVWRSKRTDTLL
T1 sequence (O60896 24-148, one chain of several): as above

Structure (SMILES)	EC50 [1] [nM]	EC50 [2] [nM]	EC50 [3] [nM]	EC50 (Amylin Receptor) [nM]
Cc1nnc(-c2c(CC34CC(C(F)F)(C3)C4)nc(CC(C)C)c(C(N)=O)c2-c2ccc(C(=O)NCc3ccc(F)c(F)c3)s2)o1 [Compound 203, 4-(5-((3,4-difluorobenzyl)carbamoyl)thiophen-2-yl)-6-((3-(difluoromethyl)bicyclo[1.1.1]pentan-1-yl)methyl)-2-isobutyl-5-(5-methyl-1,3,4-oxadiazol-2-yl)nicotinamide]	939	65	–	–
Cc1nnc(-c2c(CCC3CCN(C(=O)OCc4ccccc4)CC3)nc(CC(C)C)c(C(N)=O)c2-c2ccc(C(=O)NCc3ccc(F)c(F)c3)s2)o1 [Compound 205, Benzyl 4-[2-[5-carbamoyl-4-[5-[(3,4-difluorophenyl)methylcarbamoyl]-2-thienyl]-6-isobutyl-3-(5-methyl-1,3,4-oxadiazol-2-yl)-2-pyridyl]ethyl]piperidine-1-carboxylate]	–	6	66	–
Cc1nnc(-c2c(CCc3ccc(F)cc3)nc(CC(C)C)c(C(N)=O)c2-c2cc3ccnc(NCc4cncc(F)c4)c3s2)o1 [Compound 206, 6-[2-(p-fluorophenyl)ethyl]-4-(7-{[(5-fluoro-3-pyridyl)methyl]amino}-1-thia-6-aza-2-indenyl)-2-isobutyl-5-(5-methyl-1,3,4-oxadiazol-2-yl)nicotinamide]	–	–	–	41.5
Cc1cnc(-c2c(CCC3CCOCC3)nc(CC(C)C)c(C(N)=O)c2-c2cc3ccnc(N[C@@H]4CCc5ncccc54)c3s2)o1 [Compound 207, 4-{7-[(R)-4-aza-1-indanylamino]-1-thia-6-aza-2-indenyl}-2-isobutyl-5-(5-methyl-1,3-oxazol-2-yl)-6-[2-(tetrahydro-2H-pyran-4-yl)ethyl]nicotinamide]	–	–	–	64.3

Continued, values first:

EC50 [1] [nM]	EC50 [2] [nM]	EC50 [3] [nM]	EC50 (Amylin Receptor) [nM]	Structure (SMILES)
–	0.581	–	18.9	COc1cccc2c1CC[C@H]2Nc1nccc2cc(-c3c(C(N)=O)c(CC(C)C)nc(CCC4CCOCC4)c3-c3nnc(C)o3)sc12 [Compound 208, 4-{7-[(R)-4-methoxy-1-indanylamino]-1-thia-6-aza-2-indenyl}-2-isobutyl-5-(5-methyl-1,3,4-oxadiazol-2-yl)-6-[2-(tetrahydro-2H-pyran-4-yl)ethyl]nicotinamide]
–	–	–	96.9	CCc1nc(CC(C)C)c(C(N)=O)c(-c2cc3ccnc(N[C@@H]4CCc5ccc(F)cc54)c3s2)c1-c1nnc(C)o1 [Compound 209, 4-{7-[(R)-6-fluoro-1-indanylamino]-1-thia-6-aza-2-indenyl}-6-ethyl-2-isobutyl-5-(5-methyl-1,3,4-oxadiazol-2-yl)nicotinamide]
–	–	–	546	Cc1nnc(-c2c(COc3ccc(F)cc3)nc(CC(C)C)c(C(N)=O)c2-c2ccc(C(=O)N[C@@H]3CCc4ccccc43)s2)o1 [Compound 210, N—[(R)-1-indanyl]-5-{3-carbamoyl-6-[(p-fluorophenoxy)methyl]-2-isobutyl-5-(5-methyl-1,3,4-oxadiazol-2-yl)-4-pyridyl}-2-thenamide]

Source: US20250042916A1 (ACONCAGUA BIO, INC., priority 2023, published 2025)
